Test results as given in PubChem BioAssay AID463203 (Broad Institute, 2010).
Calls of active or inactive are those of the source.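 The calls were made as follows: active = more than half of replicate measurements showing over 20% loss of kinase signal relative to plate controls; inconclusive = some but at most half of replicates over 20% loss; inactive = no replicate over 20% signal loss.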

Molecular target: Glycogen synthase kinase-3 alpha (Homo sapiens) (UniProt P49840)
Test: concentration-response blocking of human GSK3A – biochemical, luminescence, cell-free homogeneous, retest, dose response (AID 463203)
Settings: GSK-3 alpha enzyme, ADP-Glo luminescence, 60 min

Chain of Glycogen synthase kinase-3 alpha (Homo sapiens) (P49840 whole entry, looked up): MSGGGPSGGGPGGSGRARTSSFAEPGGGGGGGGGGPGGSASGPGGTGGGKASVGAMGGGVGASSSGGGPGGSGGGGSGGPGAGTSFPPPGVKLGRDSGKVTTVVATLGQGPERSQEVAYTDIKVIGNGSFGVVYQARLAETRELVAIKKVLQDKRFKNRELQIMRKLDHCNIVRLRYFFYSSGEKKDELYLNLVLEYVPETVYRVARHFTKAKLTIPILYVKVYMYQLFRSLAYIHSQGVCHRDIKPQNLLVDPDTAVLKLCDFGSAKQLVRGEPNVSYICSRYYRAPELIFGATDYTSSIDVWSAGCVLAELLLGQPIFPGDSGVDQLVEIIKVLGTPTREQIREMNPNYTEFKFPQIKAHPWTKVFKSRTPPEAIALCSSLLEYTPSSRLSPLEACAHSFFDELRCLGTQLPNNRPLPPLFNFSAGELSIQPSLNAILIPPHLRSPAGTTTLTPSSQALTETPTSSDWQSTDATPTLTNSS

CCOCCCN(C(=O)c1snc(C(N)=O)c1N)C(C(=O)NC1CCCC1)c1ccc(O)cc1 (configuration not stated)
AC50: 27 µM

COc1ccc2nc(NC(=O)CCc3cc(OC)c(OC)c(OC)c3)sc2c1
AC50: 7.29 µM

COCCOC(=O)c1[nH]c2c(c1C)C(=O)CC(c1cc(OC)c(OC)c(OC)c1)C2 (configuration not stated)
AC50: > 30 µM (inactive)

O=[N+]([O-])c1ccc(Nc2nc(NC3CCCCC3)nc(N3CCCC3)n2)cc1
AC50: > 30 µM (inactive)

Cc1nc(Nc2ccc(C(=O)O)cc2)nc(Nc2ccc(C(=O)O)cc2)c1[N+](=O)[O-]
AC50: 11.7 µM

O=[N+]([O-])c1ccc(N/N=C/c2cn(Cc3ccc(F)cc3)c3ccccc23)nc1
AC50: > 30 µM (inactive)

COc1ccc(-c2nc(N)n[nH]2)cc1
AC50: > 30 µM (inactive)

NS(=O)(=O)c1ccc(Nc2nc(-c3cccnc3)cs2)cc1
AC50: > 30 µM (inactive)

CSc1ccc(/C=N/NC(=O)c2ccccc2Cl)cc1
AC50: > 30 µM (inactive)

O=C1NC(=O)/C(=C/c2ccc(O)cc2)S1
AC50: 27.2 µM

COc1cccc(C(=O)O/N=C(\N)c2ccccn2)c1OC
AC50: > 30 µM (inactive)

Cc1ccc(C(=O)N/C(=C\c2ccc(-c3ccc(Cl)cc3)o2)C(=O)NCCCN(C)C)cc1
AC50: > 30 µM (inactive)

COc1ccccc1NC(=O)c1ccc(C(=O)c2ccccc2)o1
AC50: > 30 µM (inactive)

CC(=O)Nc1n[nH]c(-c2ccc(C)cc2)c1C
AC50: > 30 µM (inactive)

COc1cc(NC(=O)c2cc([N+](=O)[O-])ccc2NC(=O)CNC2CCCCC2C)cc(OC)c1 (configuration not stated)
AC50: > 30 µM (inactive)

COc1ccc2nc(NC(=O)CSc3nnc(-c4ccoc4C)n3C)sc2c1
AC50: 4.62 µM

CCOC(=O)c1cc(-c2ccc(F)cc2)n(CC(=O)NC(C)CC)c1C (configuration not stated)
AC50: > 30 µM (inactive)

CCCCOC(=O)n1ccc(C(=O)Nc2ccccc2OC)n1
AC50: 29.6 µM

NNC(=O)CCCCCCCCCCOCCCCO
AC50: > 30 µM (inactive)

Nc1ncc(-c2ccccc2)c(-c2ccc(OCc3ccccc3)cc2O)n1
AC50: > 30 µM (inactive)

CC1CCCCC1NC(=O)C(=O)NCC1CCCO1 (configuration not stated)
AC50: > 30 µM (inactive)

COc1cc(C2c3sc(=O)[nH]c3SC3C4CCC(C4)C23)ccc1O (configuration not stated)
AC50: 1.22 µM

COc1cc(/C=c2\s/c(=C\C(=O)C(C)(C)C)[nH]c2=O)cc(OC)c1OC
AC50: > 30 µM (inactive)

O=C(O)c1ccc2c(c1)C(=O)N(CCCCCCCN1C(=O)c3ccc(C(=O)O)cc3C1=O)C2=O
AC50: 22.2 µM

Cn1cc(C(=O)c2cccc(Cl)c2)cc1/C=N\O
AC50: 28.3 µM

CN1C(=O)N(C)C2(c3ccccc3)Nn3c(s/c(=C/c4ccccc4)c3=O)=NC12c1ccccc1 (configuration not stated)
AC50: > 30 µM (inactive)

COc1ccc2nc(NC(=O)CN3C(=O)NC4(CCCC4)C3=O)sc2c1
AC50: 26.3 µM

Fc1ccc(-c2nc3n(n2)Cc2ccccc2-3)cc1
AC50: > 30 µM (inactive)

NS(=O)(=O)c1ccc(NC(=O)CSc2nnc(-c3ccc(O)cc3)o2)cc1
AC50: 4.93 µM

Cc1c(C(=O)N2CCOCC2)oc2ccc(S(=O)(=O)N3CCCCCC3)cc12
AC50: > 30 µM (inactive)

O=c1[nH]c2c(s1)C(c1ccccc1)C1C3CCC(C3)C1S2 (configuration not stated)
AC50: 1.98 µM

c1csc(CNc2ncnc3sccc23)c1
AC50: > 30 µM (inactive)

CCN(C(=O)C1CCCN1S(=O)(=O)c1cccc2nsnc12)c1ccccc1 (configuration not stated)
AC50: 23.9 µM

COc1cc(C2c3sc(=O)[nH]c3SC3C(=O)N(c4ccc(Br)cc4)C(=O)C32)ccc1O (configuration not stated)
AC50: > 30 µM (inactive)

Cn1c(=O)c2c(-c3ccccc3)n(Cc3ccccn3)cc2n(C)c1=O
AC50: > 30 µM (inactive)

COc1c(NC(C)=O)c2ccccc2c2ccccc12
AC50: > 30 µM (inactive)

O=C(COC(=O)CCc1ccc(S(=O)(=O)N2CCOCC2)cc1)Nc1ccc(Cl)cn1
AC50: 28.4 µM

CCN1C(=O)/C(=C2\SC(=S)N(c3c(C)n(C)n(-c4ccccc4)c3=O)C2=O)c2ccccc21
AC50: > 30 µM (inactive)

O=C(CSc1nc2[nH]ncc2c(=O)n1-c1ccc(Cl)c(Cl)c1)NCc1ccccc1Cl
AC50: > 30 µM (inactive)

Cc1oc2c(Cl)c(Cl)c(O)c(CN(C)C)c2c1C(=O)c1ccc(Cl)cc1
AC50: 7.71 µM

CCNc1nc(NCC)nc(C(=O)OCCO)n1
AC50: > 30 µM (inactive)

COc1cc(CN2CCN(Cc3ccc(C)cc3)CC2)c([N+](=O)[O-])cc1OC
AC50: > 30 µM (inactive)

CN(Cc1ccccc1)c1ncnc(N)c1[N+](=O)[O-]
AC50: 18.8 µM

O=C(Nc1cccc(O)c1)c1ccc([N+](=O)[O-])cc1Cl
AC50: > 30 µM (inactive)

OCc1nnn(-c2ccccc2)c1CO
AC50: > 30 µM (inactive)

CC1CN(c2nc(Nc3ccccc3F)nc(N)c2[N+](=O)[O-])CC(C)O1 (configuration not stated)
AC50: 9.19 µM

COC1OC(COC(=O)c2ccccc2)C(OC(=O)c2ccccc2)C1OC(=O)c1ccccc1 (configuration not stated)
AC50: > 30 µM (inactive)

O=C(NCC1CCCO1)c1ccc(NC(=O)c2cccc([N+](=O)[O-])c2)cc1 (configuration not stated)
AC50: > 30 µM (inactive)

COc1cc(/C=N/NC(=O)c2cccs2)ccc1O
AC50: > 30 µM (inactive)

CC(=C/c1ccccc1)/C=N/NC(=O)c1nnn(-c2nonc2N)c1CN1CCC(C)CC1
AC50: > 30 µM (inactive)

COc1ccc(CC(=O)Oc2ccccc2C)cc1
AC50: > 30 µM (inactive)

N#CC1=C(SCC(=O)c2ccccc2)NC2=C(C(=O)CCC2)C1c1ccco1 (configuration not stated)
AC50: > 30 µM (inactive)

O=C(NCC1CCN(Cc2ccccc2Cl)CC1)Nc1ccccc1F
AC50: > 30 µM (inactive)

Cc1ccccc1OCCSc1nnc(C)n1-c1ccccc1
AC50: > 30 µM (inactive)

C=CCN=C1NN=C(c2ccc3c(c2)OCCO3)CS1
AC50: > 30 µM (inactive)

Nc1nonc1-c1nc2ccccc2n1CCC(=O)O
AC50: 16.4 µM

Cc1cc2nc(-c3cccnc3SCC(=O)NC3CC3)[nH]c2cc1C
AC50: > 30 µM (inactive)

Cc1ccc(-c2cn3cccnc3n2)cc1NC(=O)c1cccs1
AC50: > 30 µM (inactive)

CCc1ccc(N2CC(C(=O)Nc3nccs3)CC2=O)cc1 (configuration not stated)
AC50: > 30 µM (inactive)

Cc1ccc(C2C(C#N)=C(N)Oc3n[nH]c(-c4cccnc4)c32)o1 (configuration not stated)
AC50: > 30 µM (inactive)

CCCCc1[nH]c(=O)c(C#N)c2c1CCCC2
AC50: > 30 µM (inactive)

O=C1N/C(=N\S(=O)(=O)Cc2ccccc2)S/C1=C/c1cccc([N+](=O)[O-])c1
AC50: > 30 µM (inactive)

Clc1ccc(C2=Nn3c(nnc3-c3cccs3)SC2)cc1
AC50: > 30 µM (inactive)

COc1ccc(N=Cc2c(O)[nH]c3ccccc23)cc1
AC50: 19.8 µM

c1ccc(CN2CCN(CCCNc3ccc4nnc(-c5ccccc5)n4n3)CC2)cc1
AC50: > 30 µM (inactive)

CC1=C(C(=O)Nc2cccc(F)c2)C(c2ccsc2)C2=C(CC(C)(C)CC2=O)N1 (configuration not stated)
AC50: > 30 µM (inactive)

CC(=O)Nc1cccc(-c2cnc(N)c(C(=O)c3cccnc3)n2)c1
AC50: 0.105 µM

COc1cccc(-n2c(SCC(=O)NC3CCCC3)nnc2-c2ccco2)c1
AC50: > 30 µM (inactive)

COC(=O)c1ccc(CN2C(=O)NC(CC(C)C)C2=O)cc1 (configuration not stated)
AC50: > 30 µM (inactive)

CCOC(=O)N1CC=C2C(C#N)=C(N)C(C#N)(C#N)[C@H](c3cccs3)[C@H]2C1
AC50: 22.1 µM

COc1ccc2cc(C(N)=O)c(=Nc3ccccc3)oc2c1
AC50: > 30 µM (inactive)

N#CC1=C2SCN(Cc3ccco3)CN2C(=O)CC1c1ccccc1F (configuration not stated)
AC50: > 30 µM (inactive)

CC(C)(C)NC(=O)/C(=C\C=C\c1ccccc1)NC(=O)c1ccc([N+](=O)[O-])cc1
AC50: > 30 µM (inactive)

c1ccc2c(c1)c1ccccc1n1c(-c3ccc4c(c3)OCO4)nnc21
AC50: > 30 µM (inactive)

O=C(N/N=C/c1ccc(Cl)c(Cl)c1)c1ccc2nc[nH]c2c1
AC50: > 30 µM (inactive)

Cc1ccsc1C1C2=C(CC(C)(C)CC2=O)Nc2ncnn21 (configuration not stated)
AC50: 11.3 µM

C/C(=N\NC(=O)CSc1nc(C)[nH]c1[N+](=O)[O-])c1ccc(F)cc1
AC50: > 30 µM (inactive)

Cc1ccc(OCC(=O)N2CCN(c3nnc(-c4ccccc4)c4ccccc34)CC2)cc1
AC50: > 30 µM (inactive)

CCCCn1c(O)c(C=NCCCn2ccnc2)c(=O)[nH]c1=O
AC50: 5.81 µM

CC(C)(C)N=Cc1c(O)ccc2oc3c(c12)CCCC3
AC50: > 30 µM (inactive)

Cc1cc(C(=O)c2cccs2)c(N)s1
AC50: 15.6 µM

COc1ccc(C=O)cc1OS(=O)(=O)c1ccccc1[N+](=O)[O-]
AC50: > 30 µM (inactive)

O=C(O)c1ccc2c(c1Nc1ccccc1)C(=O)c1ccccc1C2=O
AC50: 18.6 µM

Cc1cccc(-c2c3c(=O)n(C)c(=O)n(C)c3c3cccnn23)c1
AC50: > 30 µM (inactive)

N#C/C(=N\Nc1ccccc1Cl)C(=O)c1ccccc1
AC50: > 30 µM (inactive)

CC1CCN(CCCNc2cc(NCCO)c([N+](=O)[O-])c3nonc23)CC1
AC50: > 30 µM (inactive)

COc1ccc(/C=C(/NC(=O)c2ccc([N+](=O)[O-])cc2)C(=O)NC(C)(C)C)cc1
AC50: > 30 µM (inactive)

CCOC(=O)C(CC)Sc1ccc2nnc(-c3cccnc3)n2n1 (configuration not stated)
AC50: > 30 µM (inactive)

S=C(NCc1ccccc1)Nc1cccc2cnccc12
AC50: > 30 µM (inactive)

Cc1ccc(-c2c3c(nc4sc(C(N)=O)c(N)c24)CCC3)cc1
AC50: 5.39 µM

CC1(C)Cc2c(sc3c2C2=NCCN2C=N3)CS1
AC50: > 30 µM (inactive)

O=C(Nc1ccccc1)c1cc(-n2cnnc2)ccc1Cl
AC50: > 30 µM (inactive)

CCOC(=O)c1oc2ccc3c(c2c1C)C(=O)CC1(CCN(C(=O)OCC)CC1)O3
AC50: > 30 µM (inactive)

O=c1cc(-c2ccco2)oc2c1ccc1ccccc12
AC50: 7.17 µM

O=C1/C(=C/c2ccc3c(c2)OCO3)Oc2cc(OCC(=O)N3CC(O)C[C@H]3C(=O)O)ccc21 (some centres not stated)
AC50: 4.07 µM

COc1ccc(Nc2nc(-c3cc4cccc(OC)c4oc3=O)cs2)cc1
AC50: > 30 µM (inactive)

CN1CCC(=NNC(=O)C(=O)NC2CCCC2)CC1
AC50: > 30 µM (inactive)

COC1(OC)N=C(NC(=O)Nc2ccccc2)C2(C#N)C(c3ccccc3)C12C#N (configuration not stated)
AC50: > 30 µM (inactive)

CCOc1ccccc1-n1c(O)c(C=NCc2ccc3c(c2)OCO3)c(=O)[nH]c1=O
AC50: 17.5 µM

Cc1nc(NC(=O)c2ccccc2)sc1Cc1ccc2c(c1)OCO2
AC50: > 30 µM (inactive)

Clc1ccc(Nc2ncn[nH]2)cc1
AC50: > 30 µM (inactive)

N#C/C(=N\Nc1c(Cl)cccc1Cl)C(=O)NN
AC50: 5.86 µM
